pIC50: −log10 of the molar value. Activity calls are given as the source filed them. No cut-off for these calls is given here.
Experiments:
[1] = biological target: T1, Prostaglandin G/H synthase 2 (Homo sapiens, UniProt P35354); test: Inhibition of COX2 in human whole blood assessed as reduction in LPS stimulated PGE2 production incubated for 1 hr by ELISA; type: tissue-based
T1 sequence (P35354 whole entry): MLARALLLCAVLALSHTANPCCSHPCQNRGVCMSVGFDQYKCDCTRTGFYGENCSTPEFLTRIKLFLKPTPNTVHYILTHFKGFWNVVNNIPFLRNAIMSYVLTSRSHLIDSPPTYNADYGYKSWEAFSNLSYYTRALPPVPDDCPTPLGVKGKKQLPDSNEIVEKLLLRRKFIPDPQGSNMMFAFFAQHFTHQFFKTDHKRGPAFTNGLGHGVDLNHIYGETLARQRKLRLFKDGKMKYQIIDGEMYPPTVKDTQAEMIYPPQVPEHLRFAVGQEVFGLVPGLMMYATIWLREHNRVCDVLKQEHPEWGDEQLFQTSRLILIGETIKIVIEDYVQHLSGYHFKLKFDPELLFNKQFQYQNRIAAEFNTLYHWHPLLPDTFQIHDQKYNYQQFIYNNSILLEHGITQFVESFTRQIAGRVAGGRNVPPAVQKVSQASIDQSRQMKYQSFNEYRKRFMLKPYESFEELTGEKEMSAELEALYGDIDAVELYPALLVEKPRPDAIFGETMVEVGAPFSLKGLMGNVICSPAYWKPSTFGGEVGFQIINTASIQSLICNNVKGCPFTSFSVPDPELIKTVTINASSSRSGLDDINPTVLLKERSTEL

[2] = Protein binding in human colon assessed as unbound fraction; type: ADME, tissue-based
Mus musculus = test: Chemo-protective activity in po dosed C57BL/6J mouse model of spontaneous GI-tract tumor Apc-min assessed as reduction in 18F-FDG uptake in ileum incorporated into chow diet administered daily for 2 weeks and measured after 14 days by ex vivo PET imaging analysis; type: functional, organism-based
[3] = biological target: T2, Prostaglandin G/H synthase 2 (Mus musculus, UniProt Q05769); test: In vivo inhibition of COX2 in po dosed C57BL/6J mouse model of spontaneous GI-tract tumor Apc-min assessed as chemopreventive effect by measuring reduction in polyp area and relevant plasma exposures; type: functional, organism-based
T2 sequence (Q05769 whole entry): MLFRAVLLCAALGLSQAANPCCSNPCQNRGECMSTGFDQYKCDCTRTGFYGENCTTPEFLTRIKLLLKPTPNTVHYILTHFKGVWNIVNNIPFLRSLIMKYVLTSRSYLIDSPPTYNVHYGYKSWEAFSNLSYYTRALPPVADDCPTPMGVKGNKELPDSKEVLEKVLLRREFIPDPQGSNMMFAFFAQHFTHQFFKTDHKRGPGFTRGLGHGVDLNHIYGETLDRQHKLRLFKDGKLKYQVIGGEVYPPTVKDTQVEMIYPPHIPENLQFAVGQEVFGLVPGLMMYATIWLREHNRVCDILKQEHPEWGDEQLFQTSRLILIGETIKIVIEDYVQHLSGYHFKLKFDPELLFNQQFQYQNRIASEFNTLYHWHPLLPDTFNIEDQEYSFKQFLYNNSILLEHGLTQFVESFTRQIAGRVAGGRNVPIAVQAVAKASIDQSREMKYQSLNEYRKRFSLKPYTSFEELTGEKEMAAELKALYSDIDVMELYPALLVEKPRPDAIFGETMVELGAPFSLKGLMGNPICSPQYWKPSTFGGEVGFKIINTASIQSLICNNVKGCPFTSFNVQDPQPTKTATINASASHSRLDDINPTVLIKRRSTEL

[4] = biological target: T2, Prostaglandin G/H synthase 2; test: In vivo inhibition of COX2 in po dosed C57BL/6J mouse model of spontaneous GI-tract tumor Apc-min assessed as chemopreventive effect by measuring reduction in polyp area and relevant ileum exposures; type: functional, organism-based

For `CCCOc1nc(OCC(C)(C)O)c(-c2ccc(S(C)(=O)=O)cc2)cc1CO`, the pIC50 [1] was 5.63, the fraction unbound [2] was 0.066 and the Activity (Mus musculus) was “Active”. For the same compound, the pIC50 [3] was 7.46 and the pIC50 [4] was 5.62.
